# Measurements from patent US6579882B2, “Cell adhesion-inhibiting antiinflammatory compounds” (Abbott Laboratories, priority 1998, dated 2003).
# Key:
# Format in all cases: cell-based
# Conditions in all cases: 1 μM compound, primary human umbilical vein endothelial cells, compound 24 hours, then TNF 5 ng/mL 6 hours; for inhibition at 1 µM: Homo sapiens, Endothelial cell
# VCAM-1 = test: CAM ELISA: VCAM-1 expression on TNF-stimulated HUVECs
# Method: (§1) Pooled primary human umbilical vein endothelial cells (HtVEC's) (Clonetics) between passages 3 and 7 were plated in 96-well plates (Costar), 100 μL/well, 5×10^4 cells/mL in Clonetics EBM/2% FBS/EGF/Bovine brain extract/gentamicin in the absence of hydrocortisone. The following day, compounds of the invention were added in 10 μL/well medium, and the plates were incubated at 37° C. 24 hours after compound addition, TNF (Gibco/BRL) in 10 μL/well medium was added to a final concentration of 5 ng/mL, and the cells were incubated an additional 6 hours at 37° C. Then media was removed, and the plates were washed once with D-PBS (Gibco/BRL) and treated with primary antibodies (Becton Dickinson, City), 100 μL/well in D-PBS/2% BSA (Sigma)/0.01% azide. Primary antibodies at an initial concentration of 1 mg/mL were used at the following dilutions: anti-ELAM-1, 1:2000, anti-ICAM-1, 1:2000 and anti-VACM-1, 1:3000. Plates were stored overnight at 4° C., washed 3 times with D-PBS, and treated with secondary antibody (Jackson Labs), 100 μL/well 1:8000 dilution HRP-conjugated donkey anti-mouse IgG(H+L) in D-PBS/2%BSA. Plates were incubated a minimum of 1 hour at room temperature, washed 3 times with D-PBS and treated with 100 μL of orhto-phenylene diamine-2 HCl reagent per well. Plates were developed approximately 15 minutes and neutralized with 100 μL/well 1N sulfuric acid. Absorbance was read at 490 nm.
# E-Selectin = test: CAM ELISA: E-selectin expression on TNF-stimulated HUVECs
# Method: as §1
# ICAM-1 = test: CAM ELISA: ICAM-1 expression on TNF-stimulated HUVECs
# Method: as §1
Compound,inhibition at 1 µM (VCAM-1) [%],inhibition at 1 µM (E-Selectin) [%],inhibition at 1 µM (ICAM-1) [%],CAM ELISA % Inhibition at 1 μM VCAM-1 (VCAM-1) [%],CAM ELISA % Inhibition at 1 μM E-Selectin (E-Selectin) [%],CAM ELISA % Inhibition at 1 μM ICAM-1 (ICAM-1) [%]
"Cc1ccc(Oc2cncc3sc(C(N)=O)cc23)cc1 [Example 60, 4-(4-methylphenoxy)thieno[2,3-c]pyridine-2-carboxamide]",42,74,71,,,
"CCOC(=O)c1cccc(Oc2cncc3sc(C(N)=O)cc23)c1 [Example 79, ethyl 3-[[2-(aminocarbonyl)thieno[2,3-c]pyridin-4-yl]oxy]benzoate]",38,66,63,,,
"O=C(Nc1cc2c(Oc3ccc(Cl)cc3)cncc2s1)OC1CCOC1 (stereo not drawn) [Example 89, N-(4-(4-chlorophenoxy)thieno[2,3-c]pyridin-2-yl)-O-(3-tetrahydrofuranyl)carbamate]",,,,50,62,64
"NC(=O)c1cc2c(-c3ccc(C(F)(F)F)cc3)cncc2s1 [Example 95, 4-[4-(trifluoromethyl)phenyl]thieno[2,3-c]pyridine-2-carboxamide]",61,85,71,,,
"C=C(c1ccccc1)c1cncc2sc(C(N)=O)cc12 [Example 102, 4-(1-phenylethenpl)thieno[2,3-c]pyridine-2-carboxamide]",,,,53,78,68
"CN(C)C(=O)c1cc2c(Oc3ccc(Cl)cc3)cncc2s1 [Example 104, 4-(4-chlorophenoxy)-N,N-dimethylthieno[2,3-c]pyridine-2-carboxamide]",53,78,72,,,
"CN1CCN(C(=O)c2cc3c(Oc4ccc(Cl)cc4)cncc3s2)CC1 [Example 110, 1-[[4-(4-chlorophenoxy)thieno[2,3-c]pyridin-2-yl]carbonyl]-4-methylpiperazine]",39,44,48,,,
"O=C(NCCN1CCOCC1)c1cc2c(Oc3ccc(Cl)cc3)cncc2s1 [Example 119, 4-(4-chlorophenoxy)-N-[2-(4-morpholinyl)ethyl]thieno[2,3-c]pyridine-2-carboxamide]",36,59,61,,,
"NS(=O)(=O)c1cc2c(Oc3ccc(Cl)cc3)cncc2s1 [Example 120, 4-(4-Chlorophenoxy)thieno[2,3-c]pyridine-2-sulfonamide]",49,72,72,,,
"COc1ccccc1-c1cc2c(Oc3ccc(Cl)cc3)cncc2s1 [Example 124, 4-(4-chlorophenoxy)-2-(2-methoxyphenyl)thieno[2,3-c]pyridine]",26,18,29,,,
"Cc1c(C(N)=O)sc2cncc(Oc3ccc(Cl)cc3)c12 [Example 125, 4-(4-Chlorolphenoxy)-3-methylthienol[2,3-c]pyridine-2-carboxamide]",,,,44,72,69
"Cc1ccc(Sc2ccnc3cc(C(N)=O)sc23)cc1 [Example 135, 7-[(4-methylphenyl)thio]thieno[3,2-b]pyridine-2-carboxamide]",34,29,22,,,
O=C(O)CNC(=O)c1cc2c(Oc3ccc(Cl)cc3)cncc2s1 [Example 159],,,,13,30,45
"NC(=O)CNC(=O)c1cc2c(Oc3ccc(Br)cc3)cncc2s1 [Example 161, N-(2-Amino-2-oxoethyl)-4-(4-bromophenoxy)thieno[2,3-c]pyridine-2-carboxamide]",51,51,58,,,
"NC(=O)c1cc2c(Oc3cccnc3)cncc2s1 [Example 170, 4-(3-Pyridinyloxy)thieno[2,3-c]pyridine-2-carboxamide]",53,66,67,,,
"CNC(=O)c1cc2c(Oc3ccc(C(F)(F)F)cc3)cncc2s1 [Example 183, N-Methyl-4-[4-(trifluoromethyl)phenoxy]thieno[2,3-c]pyridine-2-carboxamide]",48,63,69,,,
"NC(=O)c1cc2c(Oc3cccc(C(F)(F)F)c3)cncc2s1 [Example 184, 4-[3-(Trifluoromethyl)phenoxy]thieno[2,3-c]pyridine-2-carboxamide]",30,52,56,,,

Compound,inhibition at 1 µM (VCAM-1) [%],inhibition at 1 µM (E-Selectin) [%],inhibition at 1 µM (ICAM-1) [%],CAM ELISA % Inhibition at 1 μM VCAM-1 (VCAM-1) [%],CAM ELISA % Inhibition at 1 μM E-Selectin (E-Selectin) [%],CAM ELISA % Inhibition at 1 μM ICAM-1 (ICAM-1) [%]
"N#Cc1ccc(Oc2cncc3sc(C(N)=O)cc23)cc1 [Example 187, 4-(4-Cyanophenoxy)thieno[2,3-c]pyridine-2-carboxamide]",54,78,72,,,
"CNC(=O)c1cc2c(Oc3ccc(N4CCOCC4)cc3)cncc2s1 [Example 190C, N-Methyl-4-[4-(4-morpholinyl)phenoxy]thieno[2,3-c]pyridine-2-carboxamide]",37,70,65,,,
"CNC(=O)c1cc2c(Oc3ccc(C(C)=O)cc3)cncc2s1 [Example 202, 4-(4-Acetylphenoxy)-N-methylthieno[2,3-c]pyridine-2-carboxamide]",49,80,68,,,
CNC(=O)c1cc2c(Oc3ccc(/C=C/C(=O)NCCN4CCOCC4)cc3)cncc2s1 [Example 210],,,,42,64,58
"NC(=O)c1cc2c(Oc3ccc(-n4ccnc4)cc3)cncc2s1 [Example 217, 4-[4-(1H-Imidazol-1-yl)phenoxy]thieno[2,3-c]pyridine-2-carboxamide]",42,64,63,,,
"CNC(=O)c1cc2c(Oc3ccc(-n4cccn4)cc3)cncc2s1 [Example 218, N-Methyl-4-[4-(1H-pyrazol-1-yl)phenoxy]thieno[2,3-c]pyridine-2-carboxamide]",51,66,64,,,
"CNC(=O)c1cc2c(Oc3ccc(-n4cncn4)cc3)cncc2s1 [Example 219, N-Methyl-4-[4-(1H-1,2,4-triazol-1-yl)phenoxy]thieno[2,3-c]pyridine-2-carboxamide]",50,62,68,,,
"CNC(=O)c1cc2c(Oc3ccc(-c4noc(C(F)(F)F)n4)cc3)cncc2s1 [Example 220, N-Methyl-4-[4-[5-(trifluoromethyl)-1,2,4-oxadiazol-3-yl]phenoxy]thieno[2,3-c]pyridine-2-carboxamide]",32,60,51,,,
"CNC(=O)c1cc2c(Oc3ccc(-c4cccs4)cc3)cncc2s1 [Example 222, N-Methyl-4-[4-(2-thienyl)phenoxy]thieno[2,3-c]pyridine-2-carboxamide]",44,40,42,,,
CNC(=O)c1cc2c(Oc3ccc(-c4ccccc4)cc3)cncc2s1 [Example 223],,,,36,34,36
"CNC(=O)c1cc2c(Oc3ccc(-c4cncn4C)cc3)cncc2s1 [Example 224, N-Methyl-4-[4-(1-methyl-1H-imidazol-5-yl)phenoxy]thieno[2,3-c]pyridine-2-carboxamide]",41,61,55,,,
"CNC(=O)c1cc2c(Oc3ccc(C4(CO)CC4)cc3)cncc2s1 [Example 225, 4-{4-[1-(Hydroxymethyl)cyclopropyl]phenoxy}-N-methylthieno[2,3-c]pyridine-2-carboxamide]",60,75,78,,,
CCOCCOCCOCC1(c2ccc(Oc3cncc4sc(C(=O)NC)cc34)cc2)CC1 [Example 226],,,,56,77,74
"CNC(=O)c1cc2c(Oc3ccc(OC(F)(F)F)cc3)cncc2s1 [Example 227, N-Methyl-4-[4-(trifluoromethoxy)phenoxy]thieno[2,3-c]pyridine-2-carboxamide]",44,61,62,,,
CNC(=O)c1cc2c(Oc3ccc(C(F)(F)CO)cc3)cncc2s1 [Example 229],,,,46,54,55
"CCOCCOCCOCC(F)(F)c1ccc(Oc2cncc3sc(C(=O)NC)cc23)cc1 [Example 230, 4-(4-[2-[2-(2-Ethoxyethoxy)ethoxy]-1,1-difluoroethyl]phenoxy)-N-methylthieno[2,3-c]pyridine-2-carboxamide]",45,56,53,,,
